Experimental findings from US20240300927A1, “AMIDES AS CBL-B INHIBITORS” (Genentech, Inc., priority 2021, published 2024) are described below.

Where two headings read alike, the source gives them in different places.

For one series, the target named is Cbl-b (Homo sapiens (Human), UniProt Q13191). Briefly: Cbl-b LCK Ub TR-FRET assay (Cbl-b Lck HTRF). In kind it is biochemical. An outline of the steps: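 Biotin-Cbl-b (16 nM) or biotin-c-Cbl (12 nM) at 2× preincubated with compound 60 min, then His-LCK (120 nM), 1 mM ATP and MgCl2 (2× mix) added for 90 min at RT. Buffer: HEPES pH 7.0, DTT. UBE2D2–HA-ubiquitin transfer read by TR-FRET (665/615 nm); IC50 versus no-LCK and DMSO controls, 10-point dilutions.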

The nature of series [1]: In vitro plasma protein binding, human. The class given is in vitro ADME. The following applies: pooled human plasma, read-out: PPB % (H/R/M) (converted). As for the experimental part: (§1) In vitro plasma protein binding (n=2) was determined in pooled mouse, rat, and human plasma (Bioreclamation, Inc., Hicksville, NY) by equilibrium dialysis using a Rapid Equilibrium Dialysis (RED) device (Pierce Biotechnology/Thermo Fisher Scientific; Rockford, IL) with a molecular weight cut-off of 8000 Daltons. Test compounds were added to plasma. Plasma samples were equilibriated with phosphate-buffered saline at 37° C. for 4 hours. Compound concentrations in post-dialysis plasma and buffer samples were measured by LC-MS/MS. The percent unbound fraction in plasma for each compound was calculated by dividing the compound concentration in the post-dialysis buffer by that measured in the post-dialysis plasma and multiplying by 100%.

Series [2] is described as follows: In vitro plasma protein binding, mouse. In kind it is in vitro ADME. The following applies: pooled mouse plasma, read-out: PPB % (H/R/M) (converted). The method, then: as §1
A short description of series [3]: Liver microsomes metabolic stability, human. The class given is in vitro ADME.
Series [4] in a line: Liver microsomes metabolic stability, rat. In kind it is in vitro ADME. The method, then:
(§2) Metabolic stability of test compounds was evaluated in pooled rat, mouse, dog, and cynomolgus monkey liver microsomes (BD Biosciences, San Jose, CA). The incubation conditions were as follows: 1 μM of the tested compound, 1 mM NADPH, 0.5 mg/mL microsomal protein in 0.1 M potassium phosphate buffer (pH 7.4). Following a 5-minute pre-incubation period, the enzymatic reactions were initiated by the addition of NADPH and test compound to the microsomes diluted in phosphate buffered saline. The mixtures were incubated at 37° C. for 0, 20, 40, and 60 min.
(§3) Compound concentrations were assessed by LC-MS/MS. Intrinsic clearance based upon microsomal stability data was determined using a substrate depletion method and scaled to hepatic clearance using the well-stirred model (Obach, R. S.; Baxter, J. G.; Liston, T. E.; Silber, B. M.; Jones, B. C.; MacIntyre, F.; Rance, D. J.; Wastall, P., “The Prediction of Human Pharmacokinetic Parameters from Preclinical and in vitro Metabolism Data”, J. Pharmacol. Exp. Ther., (1997), 283 (1), 46-58).
A general note: Liver microsomes are vesicles of endoplasmic reticulum, rich in cytochrome P450 enzymes.

A short description of series [5]: Liver microsomes metabolic stability, dog. In kind it is in vitro ADME. The method, then: as §2, §3
The next series in a line: Mouse PK. The class given is in vivo.

Chain of Cbl-b (Q13191 40-426): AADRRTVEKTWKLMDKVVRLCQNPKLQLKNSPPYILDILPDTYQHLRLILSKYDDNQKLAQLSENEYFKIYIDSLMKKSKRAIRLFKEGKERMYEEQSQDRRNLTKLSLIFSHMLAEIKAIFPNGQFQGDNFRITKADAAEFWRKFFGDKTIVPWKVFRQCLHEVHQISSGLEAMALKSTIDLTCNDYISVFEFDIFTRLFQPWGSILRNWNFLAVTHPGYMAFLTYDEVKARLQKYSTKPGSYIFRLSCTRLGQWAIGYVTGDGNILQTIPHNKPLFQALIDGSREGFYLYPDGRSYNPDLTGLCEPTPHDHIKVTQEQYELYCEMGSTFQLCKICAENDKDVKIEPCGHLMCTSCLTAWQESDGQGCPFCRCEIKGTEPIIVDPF

For the compound `CC(C)[C@H]1CN(C)CCN1Cc1cc(C(=O)Nc2cccc(C3(Cc4nncn4C)CC(F)(F)C3)c2)nc(C2CC2)c1` [Compound 224, (S)-6-cyclopropyl-N-(3-(3,3-difluoro-1-((4-methyl-4H-1,2,4-triazol-3-yl)methyl)cyclobutyl)phenyl)-4-((2-isopropyl-4-methylpiperazin-1-yl)methyl)picolinamide], the “(fold-selectivity)” value at Cbl-b (Cbl-b and C-Cbl selectivity, Lck HTRF) was “(0.66x)”. The 50% inhibitory concentration (IC50) (as a rule, the concentration needed to halve the response being measured) came to 7.5 nM at Cbl-b (Table 4 comparative data, read-out: Lck IC50) and 7.5 nM at Cbl-b (read-out: Cbl-b Lck HTRF IC50). The “Lck IC50 (select.)” value on Cbl-b (selectivity, Table 4) is given as 0.68 x. For the same compound, the figures for the fraction unbound at 4 h in series [1] and in series [2] were 0.14 and 0.06, respectively. Also, the “LM (H/R/M/D/C)” value was found to be 18 in series [3], 38 in series [4] and 29 in series [5]. The “Mouse PK unbound CLp” value in the series “Mouse PK” is recorded as “(unbound CLp 683)”. Further, in “Mouse PK” (plasma, intravenous, read-out: Mouse PK CLp), the clearance was 41 mL/min/kg. Besides, in “Mouse PK” (plasma, oral, read-out: Mouse PK F %), the bioavailability stood at 3.4%.
